For this test, the target named is T1, mouse VISTA (mVISTA) (Mus musculus, UniProt Q9D659).
T1 construct: expressed in transfected cells; host or cells: Human embryonic kidney 293T cells
T1 sequence (Q9D659 33-308): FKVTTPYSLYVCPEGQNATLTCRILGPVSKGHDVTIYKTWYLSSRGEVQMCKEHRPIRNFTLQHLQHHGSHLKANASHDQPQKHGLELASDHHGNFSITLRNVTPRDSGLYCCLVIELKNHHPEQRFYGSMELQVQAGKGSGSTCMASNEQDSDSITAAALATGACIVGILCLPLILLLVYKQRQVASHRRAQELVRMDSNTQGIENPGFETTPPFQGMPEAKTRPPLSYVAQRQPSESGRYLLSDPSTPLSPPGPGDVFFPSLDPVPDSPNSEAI
The experiment in a line: Cell-Based Binding High-Content Assay For mVISTA (HC CBA mVISTA). The following applies: read-out: HC CBA mVISTA IC50. The gist of the method:
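Competition of compound with a biotinylated peptide (final 2 nM, 30 min at RT) for binding to mVISTA on 293T cells, run under no-wash or wash (1 h compound preincubation then removal) formats. Readout by Alexa 647–streptavidin imaging on a high-content platform; four-parameter logistic fit gave IC50.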

The mark [1] stands for this setting: the 19th table, scaffold drawing 22.

Like-named read-outs stand apart in the source and are kept apart here. Positions of bridges follow the written chain, without caps; N, C: chain ends. Non-standard residues stand in square brackets, D forms with d. Residues, ends and D or L forms follow the SMILES beside them. Phe(3-Me) = Cc1cccc(C[C@H](N)C(=O)O)c1; 1Nal = N[C@@H](Cc1cccc2ccccc12)C(=O)O; Cit = NC(=O)NCCC[C@H](N)C(=O)O; Ahp(2) = CCCCC[C@H](N)C(=O)O; NMeNle = CCCC[C@H](NC)C(=O)O; NHexGly = CCCCCCNCC(=O)O; Nle = CCCC[C@H](N)C(=O)O; Orn = NCCC[C@H](N)C(=O)O

This note sets out measurements from patent publication US20240218022A1, “ANTI-VISTA MACROCYCLIC PEPTIDES AND COMPOSITIONS” (BRISTOL-MYERS SQUIBB COMPANY, priority 2022, published 2024).

As to `CCCCCCN1CC(=O)N[C@@H](Cc2ccc(O)cc2)C(=O)N[C@@H](CCCC)C(=O)N[C@@H](CC(=O)O)C(=O)N[C@@H](CCCN)C(=O)N(C)[C@@H](CCCC)C(=O)N[C@@H](CCCCC)C(=O)N2CCC[C@H]2C(=O)N[C@@H](C(C)C)C(=O)N[C@@H](CC(=O)O)C(=O)N[C@H](C(=O)N[C@@H](CC(=O)O)C(N)=O)CSCC(=O)N[C@@H](Cc2cccc(C)c2)C(=O)N[C@@H](Cc2c[nH]c3ccccc23)C(=O)N[C@@H](CC(=O)O)C1=O` [compound 1439] ({CH2CO}-[Phe(3-Me)]WD[NHexGly]Y[Nle]D[Orn][NMeNle][Ahp(2)]PVDCD-NH2; thioether N-14), the IC50 under setting [1] worked out at 9.3 nM.

Consider `CCCCCCN1CC(=O)N[C@@H](Cc2ccc(O)cc2)C(=O)N[C@@H](CCCC)C(=O)N[C@@H](CC(=O)O)C(=O)N[C@@H](CCCNC(=N)N)C(=O)N(C)[C@@H](CCCC)C(=O)N[C@@H](CCCCC)C(=O)N2CCC[C@H]2C(=O)N[C@@H](C(C)C)C(=O)N[C@@H](CC(=O)O)C(=O)N[C@H](C(=O)N[C@@H](CC(=O)O)C(N)=O)CSCC(=O)N[C@@H](Cc2cccc(C)c2)C(=O)N[C@@H](Cc2c[nH]c3ccccc23)C(=O)N[C@@H](CC(=O)O)C1=O` [compound 1440] ({CH2CO}-[Phe(3-Me)]WD[NHexGly]Y[Nle]DR[NMeNle][Ahp(2)]PVDCD-NH2; thioether N-14), for which, under setting [1], the IC50 turned out to be 14.8 nM. Same read-out and setting: the result for `CCCCCCN1CC(=O)N[C@@H](Cc2ccc(O)cc2)C(=O)N[C@@H](CCCCC)C(=O)N[C@@H](CC(N)=O)C(=O)N[C@@H](CCCNC(=N)N)C(=O)N(C)[C@@H](CCCC)C(=O)N[C@@H](CCCCC)C(=O)N2CCC[C@H]2C(=O)N[C@@H](C(C)C)C(=O)N[C@@H](CC(=O)O)C(=O)N[C@H](C(=O)NCC(=O)O)CSCC(=O)N[C@@H](Cc2cccc(C)c2)C(=O)N[C@@H](Cc2c[nH]c3ccccc23)C(=O)N[C@@H](CC(=O)O)C1=O` [compound 1441] ({CH2CO}-[Phe(3-Me)]WD[NHexGly]Y[Ahp(2)]NR[NMeNle][Ahp(2)]PVDCG-OH; thioether N-14) reads 10.2 nM; that for `CCCCCCN1CC(=O)N[C@@H](Cc2ccc(O)cc2)C(=O)N[C@@H](CCCC)C(=O)N[C@@H](CC(N)=O)C(=O)N[C@@H](CCCNC(=N)N)C(=O)N(C)[C@@H](CCCC)C(=O)N[C@@H](CCCCC)C(=O)N2CCC[C@H]2C(=O)N[C@@H](C(C)C)C(=O)N[C@@H](CC(=O)O)C(=O)N[C@H](C(=O)NCC(=O)O)CSCC(=O)N[C@@H](Cc2cccc(C)c2)C(=O)N[C@@H](Cc2c[nH]c3ccccc23)C(=O)N[C@@H](CC(=O)O)C1=O` [compound 1442] ({CH2CO}-[Phe(3-Me)]WD[NHexGly]Y[Nle]NR[NMeNle][Ahp(2)]PVDCG-OH; thioether N-14), 27.7 nM; that for `CCCCCCN1CC(=O)N[C@@H](Cc2ccc(O)cc2)C(=O)N[C@@H](CCCC)C(=O)N[C@@H](CC(N)=O)C(=O)N[C@@H](CCCNC(N)=O)C(=O)N(C)[C@@H](CCCC)C(=O)N[C@@H](CCCCC)C(=O)N2CCC[C@H]2C(=O)N[C@@H](C(C)C)C(=O)N[C@@H](CC(=O)O)C(=O)N[C@H](C(=O)NCC(=O)O)CSCC(=O)N[C@@H](Cc2cccc(C)c2)C(=O)N[C@@H](Cc2c[nH]c3ccccc23)C(=O)N[C@@H](CC(=O)O)C1=O` [compound 1443] ({CH2CO}-[Phe(3-Me)]WD[NHexGly]Y[Nle]N[Cit][NMeNle][Ahp(2)]PVDCG-OH; thioether N-14), 21.2 nM.

Turning to `CCCCCCN1CC(=O)N[C@@H](Cc2ccc(O)cc2)C(=O)N[C@@H](CCCCC)C(=O)N[C@@H](CC(N)=O)C(=O)N[C@@H](CCCNC(=N)N)C(=O)N(C)[C@@H](CCCC)C(=O)N[C@@H](CCCCC)C(=O)N2CCC[C@H]2C(=O)N[C@@H](C(C)C)C(=O)N[C@@H](CC(=O)O)C(=O)N[C@H](C(=O)N[C@@H](CO)C(=O)O)CSCC(=O)N[C@@H](Cc2cccc(C)c2)C(=O)N[C@@H](Cc2c[nH]c3ccccc23)C(=O)N[C@@H](CC(=O)O)C1=O` [compound 1444] ({CH2CO}-[Phe(3-Me)]WD[NHexGly]Y[Ahp(2)]NR[NMeNle][Ahp(2)]PVDCS-OH; thioether N-14), the IC50 under setting [1] turned out to be 13.3 nM.

Consider `CCCCCCN1CC(=O)N[C@@H](Cc2ccc(O)cc2)C(=O)N[C@@H](CCCC)C(=O)N[C@@H](CC(=O)O)C(=O)N[C@@H](CCCNC(=N)N)C(=O)N(C)[C@@H](CCCC)C(=O)N[C@@H](CCCCC)C(=O)N2CCC[C@H]2C(=O)N[C@@H](C(C)C)C(=O)N[C@@H](CC(=O)O)C(=O)N[C@H](C(=O)N[C@@H](CO)C(N)=O)CSCC(=O)N[C@@H](Cc2cccc(C)c2)C(=O)N[C@@H](Cc2c[nH]c3ccccc23)C(=O)N[C@@H](CC(=O)O)C1=O` [compound 1445] ({CH2CO}-[Phe(3-Me)]WD[NHexGly]Y[Nle]DR[NMeNle][Ahp(2)]PVDCS-NH2; thioether N-14), for which, under setting [1], the IC50 came out at 9.9 nM.

Turning to `CCCCCCN1CC(=O)N[C@@H](Cc2ccc(O)cc2)C(=O)N[C@@H](CCCC)C(=O)N[C@@H](CC(=O)O)C(=O)N[C@@H](CCCN)C(=O)N(C)[C@@H](CCCC)C(=O)N[C@@H](CCCCC)C(=O)N2CCC[C@H]2C(=O)N[C@@H](C(C)C)C(=O)N[C@@H](CC(=O)O)C(=O)N[C@H](C(=O)N[C@@H](CO)C(N)=O)CSCC(=O)N[C@@H](Cc2cccc(C)c2)C(=O)N[C@@H](Cc2c[nH]c3ccccc23)C(=O)N[C@@H](CC(=O)O)C1=O` [compound 1446] ({CH2CO}-[Phe(3-Me)]WD[NHexGly]Y[Nle]D[Orn][NMeNle][Ahp(2)]PVDCS-NH2; thioether N-14), under setting [1], the IC50 stood at 9.1 nM. For the compound `CCCCCCN1CC(=O)N[C@@H](Cc2ccc(O)cc2)C(=O)N[C@@H](CCCC)C(=O)N[C@@H](CC(=O)O)C(=O)N[C@@H](CCCNC(N)=O)C(=O)N(C)[C@@H](CCCC)C(=O)N[C@@H](CCCCC)C(=O)N2CCC[C@H]2C(=O)N[C@@H](C(C)C)C(=O)N[C@@H](CC(=O)O)C(=O)N[C@H](C(=O)N[C@@H](CC(=O)O)C(N)=O)CSCC(=O)N[C@@H](Cc2cccc(C)c2)C(=O)N[C@@H](Cc2ccc(O)cc2)C(=O)N[C@@H](CC(=O)O)C1=O` [compound 1447] ({CH2CO}-[Phe(3-Me)]YD[NHexGly]Y[Nle]D[Cit][NMeNle][Ahp(2)]PVDCD-NH2; thioether N-14), under setting [1], the IC50 amounted to 15.3 nM. In the case of `CCCCCCN1CC(=O)N[C@@H](Cc2ccc(O)cc2)C(=O)N[C@@H](CCCC)C(=O)N[C@@H](CC(=O)O)C(=O)N[C@@H](CCCNC(=N)N)C(=O)N(C)[C@@H](CCCC)C(=O)N[C@@H](CCCCC)C(=O)N2CCC[C@H]2C(=O)N[C@@H](C(C)C)C(=O)N[C@@H](CC(=O)O)C(=O)N[C@H](C(=O)N[C@@H](CC(=O)O)C(N)=O)CSCC(=O)N[C@@H](Cc2cccc(C)c2)C(=O)N[C@@H](Cc2ccc(O)cc2)C(=O)N[C@@H](CC(=O)O)C1=O` [compound 1448] ({CH2CO}-[Phe(3-Me)]YD[NHexGly]Y[Nle]DR[NMeNle][Ahp(2)]PVDCD-NH2; thioether N-14), the IC50 under setting [1] stood at 14.2 nM.

For the compound `CCCCCCN1CC(=O)N[C@@H](Cc2ccc(O)cc2)C(=O)N[C@@H](CCCC)C(=O)N[C@@H](CC(=O)O)C(=O)N[C@@H](CCCN)C(=O)N(C)[C@@H](CCCC)C(=O)N[C@@H](CCCCC)C(=O)N2CCC[C@H]2C(=O)N[C@@H](C(C)C)C(=O)N[C@@H](CC(=O)O)C(=O)N[C@H](C(=O)N[C@@H](CC(=O)O)C(N)=O)CSCC(=O)N[C@@H](Cc2cccc(C)c2)C(=O)N[C@@H](Cc2ccc(O)cc2)C(=O)N[C@@H](CC(=O)O)C1=O` [compound 1449] ({CH2CO}-[Phe(3-Me)]YD[NHexGly]Y[Nle]D[Orn][NMeNle][Ahp(2)]PVDCD-NH2; thioether N-14), the IC50 under setting [1] stood at 10.8 nM. For the compound `CCCCCCN1CC(=O)N[C@@H](Cc2ccc(O)cc2)C(=O)N[C@@H](CCCC)C(=O)N[C@@H](CC(N)=O)C(=O)N[C@@H](CCCNC(=N)N)C(=O)N(C)[C@@H](CCCC)C(=O)N[C@@H](CCCCC)C(=O)N2CCC[C@H]2C(=O)N[C@@H](C(C)C)C(=O)N[C@@H](CC(=O)O)C(=O)N[C@H](C(=O)NCC(=O)O)CSCC(=O)N[C@@H](Cc2cccc(C)c2)C(=O)N[C@@H](Cc2ccc(O)cc2)C(=O)N[C@@H](CC(=O)O)C1=O` [compound 1450] ({CH2CO}-[Phe(3-Me)]YD[NHexGly]Y[Nle]NR[NMeNle][Ahp(2)]PVDCG-OH; thioether N-14), under setting [1], the IC50 was found to be 7 nM. With `CCCCCCN1CC(=O)N[C@@H](Cc2ccc(O)cc2)C(=O)N[C@@H](CCCC)C(=O)N[C@@H](CC(=O)O)C(=O)N[C@@H](CCCNC(=N)N)C(=O)N(C)[C@@H](CCCC)C(=O)N[C@@H](CCCCC)C(=O)N2CCC[C@H]2C(=O)N[C@@H](C(C)C)C(=O)N[C@@H](CC(=O)O)C(=O)N[C@H](C(=O)N[C@@H](CO)C(N)=O)CSCC(=O)N[C@@H](Cc2cccc(C)c2)C(=O)N[C@@H](Cc2ccc(O)cc2)C(=O)N[C@@H](CC(=O)O)C1=O` [compound 1451] ({CH2CO}-[Phe(3-Me)]YD[NHexGly]Y[Nle]DR[NMeNle][Ahp(2)]PVDCS-NH2; thioether N-14), under setting [1], the IC50 worked out at 8.6 nM. For the compound `CCCCCCN1CC(=O)N[C@@H](Cc2ccc(O)cc2)C(=O)N[C@@H](CCCC)C(=O)N[C@@H](CC(N)=O)C(=O)N[C@@H](CCCNC(=N)N)C(=O)N[C@@H](CC(C)C)C(=O)N[C@@H](CCCCC)C(=O)N2CCC[C@H]2C(=O)N[C@@H](C(C)C)C(=O)N[C@@H](CO)C(=O)N[C@H](C(=O)NCC(=O)O)CSCC(=O)N[C@@H](Cc2cccc3ccccc23)C(=O)N[C@@H](Cc2ccc(O)cc2)C(=O)N[C@@H](CC(=O)O)C1=O` [compound 1452] ({CH2CO}-[1Nal]YD[NHexGly]Y[Nle]NRL[Ahp(2)]PVSCG-OH; thioether N-14), the IC50 (the 20th table, scaffold drawing 23) was 19.9 nM.

As usually defined, the IC50 is the concentration needed to halve the response being measured.
